We go through eight compounds from patent US20180055868A1, “METHODS AND COMPOSITIONS FOR STIMULATING BONE REGENERATION” (New York University, priority 2012, published 2018).

Experiment [1] relates to trephined calvarium bone defect. As to the kind of experiment: Trephined 3 mm calvarial defect, collagen matrix reinjected daily, microCT bone regeneration (Example 2). The class given is in vivo, mice. The following applies: 8 weeks post trephination; for concentration achieving maximal effect on bone regeneration / dose dependence of effect on bone regeneration: FIG. 3; for effect on bone regeneration: microCT, FIG. 2. As to the method: In FIG. 2B, the percentage bone regeneration is calculated as the percent of the original defect that was now filled with bone.
(§1) A 3 mm portion of the calvarium was trephined with a drill followed by implantation of a collagen matrix soaked in either a vehicle or a pharmacologic agent and/or receptor antagonists to promote bone regeneration. The matrix was reinjected daily with the agent for periods ranging from 2-8 weeks prior to harvest of the mice and examination of the calvaria. […] Experiments were performed with specific agonists and antagonists at varying doses, and specific receptor agonists were tested on corresponding knockout mice to better confirm the role of the indicated receptor.
(§2) Some of the calvaria were decalcified, and histochemical and immunohistochemical staining and microscopic analyses were performed. Other calvaria were cleaned of adherent tissue and subject to microCT analysis for bone defect size and percent regeneration measures.

For experiment [2], the system named is peripheral blood monocytes. The settings on record: effect mediated by adenosine acting at A1 receptors; cited from earlier work.
The subject of experiment [3] is osteoblasts and osteoclasts in the regenerating bone. Kind of experiment: Histochemical and immunohistochemical staining of regenerating calvarial bone sections. The experiment is classed as in vivo, mice. The following applies: for TRAP stained osteoclasts in the regenerating bone / alkaline phosphatase positive osteoblasts in the regenerating bone / RANK+ cells in the regenerating bone / RANKL+ cells in the regenerating bone / osteoprotegerin+ cells in the regenerating bone: cells/hpf vs control; for TRAP stained osteoclasts in the regenerating bone / alkaline phosphatase positive osteoblasts in the regenerating bone: FIG. 7; for bone formation shown histologically: histology of calvaria, FIG. 9; for RANK+ cells in the regenerating bone / RANKL+ cells in the regenerating bone / osteoprotegerin+ cells in the regenerating bone: immunohistochemistry, FIG. 8.
Excerpt: Shown in FIG. 7A are representative medium powered fields of calvarial sections stained immunohistochemically for alkaline phosphatase (left hand column, a marker for osteoblasts). Shown in the next column of figures are sections stained histochemically for tartrate resistant acid phosphatase (a marker for osteoclasts). Arrows in these figures point to osteoblasts (first column) or osteoclasts (second column).
Paraffin embedded sections are stained immunohistochemically for RANK, RANKL or osteoprotegerin. Slides are imaged and positive cells (brown) are enumerated in three fields. Shown on the left are representative medium power sections of immunohistochemcically stained sections.
Staining of decalcified bone sections for osteoclasts (TRAP staining) and osteoblasts (alkaline phosphatase staining) was performed. Immunostaining for other markers of osteoclast (cathepsin K) lineage and other molecules of interest (e.g. semaphorin 4D, plexin-B1, nuclear b-catenin) were performed.
as §2

Experiment [4] deals with trephined calvarium bone defect in A2BKO mice. Kind of experiment: Calvarial defect bone regeneration in A2B receptor knockout (A2BKO) mice. The class given is in vivo. The settings on record: 8 weeks post trephination, FIG. 5. On the procedure:
as §1

In another experiment the test system is defect in mouse calvaria. Kind of experiment: 3 mm mouse calvarial bone defect with drug-soaked collagen matrix, microCT (Example 1). The experiment is classed as in vivo, C57B6 mice. The following applies: collagen matrix in 3 mm calvarial defect, 8 weeks. As to the method:
. Under general anesthesia a 3 mm in diameter defect is drilled into the skull of C57B6 mice. […]. The matrix is then reinjected with 100 μl of these agents daily for 8 weeks before harvest. […] FIG. 1B represents the percentage bone regeneration calculated as the percent of the original defect that was now filled with bone. Shown are the means (+SD) of results obtained in 3 animals for each condition. Results were analyzed by ANOVA. ***p<0.001
A 3 mm in diameter defect was created in mouse calvaria into which was fit a collagen matrix. […].

Another experiment has as its target T1, A3 adenosine receptor (Homo sapiens, UniProt P0DMS8).
T1 sequence (P0DMS8 1-318): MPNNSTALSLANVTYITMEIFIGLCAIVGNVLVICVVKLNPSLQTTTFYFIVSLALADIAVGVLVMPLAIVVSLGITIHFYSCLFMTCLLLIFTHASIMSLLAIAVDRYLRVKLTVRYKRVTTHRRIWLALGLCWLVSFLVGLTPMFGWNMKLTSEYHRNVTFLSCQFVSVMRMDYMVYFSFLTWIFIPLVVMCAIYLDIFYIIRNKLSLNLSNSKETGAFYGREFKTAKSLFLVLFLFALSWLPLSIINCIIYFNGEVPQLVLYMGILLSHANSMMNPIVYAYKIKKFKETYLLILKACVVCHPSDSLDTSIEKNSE
The settings on record: cited from earlier work.

As for `CNC(=O)[C@H]1O[C@@H](n2cnc3c(NCc4cccc(I)c4)ncnc32)[C@H](O)[C@@H]1O` [adenosine A3 receptor agonist], in experiment [1], the “concentration achieving maximal effect on bone regeneration” value (“concentration achieving maximal effect” below) stood at 1 µM, the “dose dependence of effect on bone regeneration” value (“dose dependence of effect” below) is reported as “dose-dependent” and the “effect on bone regeneration” value is “no effect”.
On to `CN(Cc1cnc2nc(N)nc(N)c2n1)c1ccc(C(=O)N[C@@H](CCC(=O)O)C(=O)O)cc1` [Methotrexate], for which the giant cell formation result in experiment [2] was “increases giant cell formation”.
As for `N#Cc1c(N)nc(SCC(N)=O)c(C#N)c1-c1ccc(OCC2CC2)cc1` [BAY606583], in experiment [1], the “concentration achieving maximal effect” value is 1 µM, the “dose dependence of effect” value was “dose-dependent” and the “effect on bone regeneration” value is “stimulate bone regeneration”.
`Nc1nc(NCCc2ccc(O)cc2)nc2nc(-c3ccco3)nn12` [ZM241385]: in experiment [1] (FIG. 4), the “effect of antagonist on bone regeneration promoted by dipyridamole” value is “blocks the effect” and the “effect of antagonist on bone regeneration promoted by the A2A agonist CGS21680” value is “blocks the effect”.
As for `CCNC(=O)[C@H]1O[C@@H](n2cnc3c(N)nc(NCCc4ccc(CCC(=O)O)cc4)nc32)[C@H](O)[C@@H]1O` [CGS21680], in experiment [1], the “concentration achieving maximal effect” value amounted to 1 µM, the “dose dependence of effect” value was “dose-dependent” and the “effect on bone regeneration” value is reported as “stimulate bone regeneration”. For the same compound, in experiment [3], the “TRAP stained osteoclasts in the regenerating bone” value (shortened to “TRAP stained osteoclasts”) was “reduce”, the “alkaline phosphatase positive osteoblasts in the regenerating bone” value is “increase”, the “bone formation shown histologically” value is “bone formation” and the “RANK+ cells in the regenerating bone” value is given as “reduction”. In experiment [3], the “RANKL+ cells in the regenerating bone” value is “reduction” and the “osteoprotegerin+ cells in the regenerating bone” value (“osteoprotegerin+ cells” below) was “increase”. For the same compound, the “effect of the agent on bone regeneration upon deletion of the A2B receptor” value in experiment [4] is “reverses the effect”.
Regarding `OCCN(CCO)c1nc(N2CCCCC2)c2nc(N(CCO)CCO)nc(N3CCCCC3)c2n1` [dipyridamole], in the experiment on defect in mouse calvaria, the “effect on bone regeneration” value is “stimulates bone regeneration”. Further, in experiment [1], the “concentration achieving maximal effect” value was 1 µM, the “dose dependence of effect” value is on record as “dose-dependent” and the “effect on bone regeneration” value was “promotes bone regeneration”. Further, in experiment [3], the “TRAP stained osteoclasts” value is recorded as “reduce”, the “alkaline phosphatase positive osteoblasts in the regenerating bone” value was “increase”, the “bone formation shown histologically” value is given as “bone formation” and the “RANK+ cells in the regenerating bone” value is given as “reduction”. Besides, in experiment [3], the “RANKL+ cells in the regenerating bone” value was “reduction” and the “osteoprotegerin+ cells” value is given as “increase”.
For `Nc1ncnc2c1ncn2[C@@H]1O[C@H](CO)[C@@H](O)[C@H]1O` [adenosine], on A3 adenosine receptor, the affinity for adenosine result is on record as “low-micromolar range”.
On to `CCCn1c(=O)c2[nH]c(C3CCCC3)nc2n(CCC)c1=O` [DPCPX, 8-Cyclopentyl-1,3-dipropylxanthine], for which, in experiment [1], the “concentration achieving maximal effect” value stood at 1 µM, the “dose dependence of effect” value is reported as “dose-dependent” and the “effect on bone regeneration” value is listed as “stimulate bone regeneration”. In experiment [3], the “TRAP stained osteoclasts” value was “reduce”, the “alkaline phosphatase positive osteoblasts in the regenerating bone” value is recorded as “increase”, the “bone formation shown histologically” value was “bone formation” and the “RANK+ cells in the regenerating bone” value is reported as “reduction”. For the same compound, in experiment [3], the “RANKL+ cells in the regenerating bone” value is recorded as “reduction” and the “osteoprotegerin+ cells” value is reported as “increase”. Also, the “effect of the agent on bone regeneration upon deletion of the A2B receptor” value in experiment [4] is reported as “reverses the effect”.
